# Patent US9539232B1, “Calebin A for osteoporosis” (priority 2016, dated 2017)
# Experiments:
# Type in all cases: cell-based, mouse
# [1] = system: RAW 264.7 cells incubated in the presence of U266 cells; assay: Osteoclastogenesis induced by co-culture with U266 multiple myeloma cells (TRAP staining); details: calebin A 5 mM, co-incubated 5 days
# Protocol: (§1) To determine the effects of calebin A on RANKL-induced osteoclast differentiation, the RAW264.7 cells were cultured at a density of 5×10^3 cells per well in 24-well plates and allowed to adhere overnight. The medium was then replaced and the cells were treated with 5 nM RANKL for 5 days. After the incubation, the cells were subjected to TRAP staining using leukocyte acid phosphatase kit. For co-culture experiments with cancer cells, RAW 264.7 cells were seeded at a density of 5×10^3 cells per well and allowed to adhere overnight. U266 or MDA-MB-231 cells, at a density of 1×10^3 cells per well, were added to the RAW 264.7 cells the following day. The wells were treated with calebin A, and co-cultured for 5 days before being subjected to TRAP staining. For conditioned medium experiments, RAW 264.7 cells were seeded at a density of 5×10^3 cells per well and allowed to adhere overnight. The following day, the medium was replaced with ⅘ of RAW 264.7 medium (DMEM/F12) plus ⅕ of conditioned medium from MDA-MB-231 or U266 cells. For that procedure, the supernatant of cultured cancer cells that had been centrifuged was used. Finally, the RAW264.7 cells were cultured for 5 days and subjected to TRAP staining and an electrophoretic mobility shift assay (EMSA).
# [2] = system: ERK1/2 phosphorylation; assay: Western blot for phospho-ERK1/2; details: calebin A pretreatment 8 h, RANKL 10 nM
# Protocol: (§2) To determine protein expression levels, the cytoplasmic and whole cell extracts were prepared and were fractionated using 10% sodium dodecyl sulphate polyacrylamide gel electrophoresis (SDSPAGE). After electrophoresis, the proteins were transferred to nitrocellulose membranes, blotted with the relevant antibodies, and detected with enhanced chemiluminescence reagent (GE Healthcare, Piscataway, N.J.).
# [3] = system: NFATc1, TRAP, cathepsin K and calcitonin R expression; assay: Western blot for RANKL-induced osteoclastogenesis-related marker expression
# Protocol: as §2
# NFATc1 plays a major role in the regulation of osteoclastogenesis. […] Basically, activation and nuclear translocation of NFATc1 and osteoclast differentiation are mediated by the expression of large number of marker genes, including TRAP, cathepsin K and calcitonin R, regulated by NFATc1. These genes are activated by the RANKL-mediated signalling pathway. Therefore, the effect of calebin A on the expression of RANKL-induced osteoclastogenesis related marker genes, were also examined.
# [4] = system: NF-κB activation; assay: Electrophoretic mobility shift assay for NFκB
# Protocol: To assess NFκB activation in the nuclear extracts, EMSA was carried out using the procedure described by Y. Li, S. Li, Y. Han, J. Liu, J. Zhang, F. Li, Y. Wang, X. Liu, L. Yao, Eur. J. Pharmacol. 591 (2008) 252-258. In brief, nuclear extracts from untreated and RANKL-treated RAW 264.7 cells were incubated with the 32P-end-labeled 45-mer double-stranded NFκB oligonucleotide ([…] protein with 16 fM DNA) from the HIV long terminal repeat, 5′-[…]-3′(boldface indicates NFκB binding sites), for 30 min at 37° C. The DNA-protein complex formed was separated from free oligonucleotides on 6.6% native polyacrylamide gels. The dried gels were visualized with a Storm 820 molecular imager (Amersham, Piscataway, N.J., USA), and radioactive bands were quantified using a densitometer and Image Quant software ([…]).
# [5] = system: IκBα; assay: Western blot for IκBα degradation and phosphorylation
# Protocol: as §2
# [6] = system: RAW 264.7 cells; assay: Cell proliferation assay (MTT); details: 1, 2 or 5 mM calebin A, days 1, 3 and 5
# Protocol: The effects of calebin A on the proliferation of RAW 264.7 cells were determined by measuring mitochondrial dehydrogenase activity with 3-[4,5-dimethylthiazol-2-yl]-2,5-diphenyl tetrazolium bromide (MTT) as the substrate as described in B. Sung, S. Prasad, V. R. Yadav, S. C. Gupta, S. Reuter, N. Yamamoto, A. Murakami, B. B. Aggarwal, PloS One 8 (2013) e64118. In brief, 3000 RAW264.7 cells (in 0.1 ml media) per well were incubated with various concentrations of calebin A, in triplicate, in 96-well plates at 37° C. for 1, 3, or 5 days. At each interval, MTT solution was added to each well, and the plates were incubated for 2 h at 37° C. An extraction buffer (100 mM) comprised of 20% sodium dodecyl sulphate (SDS) and 50% dimethyl formamide was added, and the cells were incubated overnight at 37° C. to dissolve the formazan formed during the reaction. The absorbance of the coloured product was then measured at 570 nm using a 96-well multiscanner (MRX Revelation, Dynex Technologies, Chantilly, Va.).
# [7] = system: RAW 264.7 cells; assay: Osteoclast differentiation assay, RANKL-induced (TRAP staining)
# Protocol: as §1
# [8] = system: RAW 264.7 cells incubated in the presence of MDA-MB-231 cells; assay: Osteoclastogenesis induced by co-culture with MDA-MB-231 breast cancer cells (TRAP staining); details: calebin A 5 mM, co-incubated 5 days
# Protocol: as §1
# [9] = system: p65 transfected RAW 264.7 cells; assay: RANKL-induced osteoclastogenesis after transfection of p65 plasmid; details: 5 mM calebin A, 5 nM RANKL, 5 days
# Protocol: To determine the role of NF-κB/p65 expression on calebin A-induced inhibition osteoclastogenesis, RAW 264.7 cells (5×10^5 cells/well) were plated in 6-well plates and transiently transfected by the calcium phosphate method with pNF-κB ([…]) and control plasmid pCMVFLAG1 DNA for 24 h. The medium was then replaced, and the cells were treated with RANKL (5 nM) and or calebin A (5 mM) for 5 days. All cells were subjected to TRAP staining using the leukocyte acid phosphatase kit.
# [10] = system: RANK and c-Fms expression; assay: Immunoblot for M-CSF-induced osteoclast differentiation markers; details: 50 mM calebin A 8 h, 20 ng/mL M-CSF 24 h
# Protocol: as §2
# Further to examine the possible role of calebin A in the regulation of osteoclast differentiation in early stage, the RAW 264.7 cells were pre-treated with calebin A and induced by M-CSF for 24 h.
# [11] = calebin A 5 mM, measured on day 5
smiles,measurement,setting,value
COc1cc(/C=C/C(=O)COC(=O)/C=C/c2ccc(O)c(OC)c2)ccc1O [Calebin A],U266 cell-induced differentiation of RAW264.7 cells into osteoclasts,[1],A similar pattern was observed
same,RANKL-induced ERK1/2 phosphorylation,[2],did not inhibit the RANKL-induced activation of ERK phosphorylation
same,"RANKL-induced NFATc1, TRAP, cathepsin K and calcitonin R expression","[3]; 50 mM calebin A 8 h, 10 nM RANKL 24 h","inhibits the RANKL-induced NFATc1, TRAP, cathepsin K and calcitonin R expression"
same,RANKL-induced NFATc1 expression,"[3]; 50 mM calebin A 8 h pretreatment, 10 nM RANKL 24 h",abolished the RANKL-induced NFATc1 expression
same,"Expression of TRAP, cathepsin K and calcitonin R with calebin A alone","[3]; calebin A alone, no RANKL",no effect of calebin A alone
same,NF-κB activation without RANKL (EMSA),[4]; 50 mM calebin A without RANKL for 8 h,No effect on the activation of NF-κB
same,"RANKL-induced NF-κB activation (EMSA), dose dependence","[4]; dose of 50 mM, 8 h pretreatment, RANKL 30 min",completely suppressed NF-κB activation
same,RANKL-induced NF-κB activation (EMSA),"[4]; pretreated with various concentrations for 8 h or 50 mM for various times, then RANKL 10 nM 30 min",completely abrogated RANKL-induced NF-κB activation
same,IκBα phosphorylation at serines 32 and 36 induced by RANKL and ALLN co-treatment,"[5]; 50 mM calebin A 8 h, ALLN 30 min, RANKL 10 nM 15 min",inhibited the induction of phosphorylation
same,"RANKL-induced IκBα degradation (cytoplasmic, western blot)","[5]; 50 mM calebin A 8 h pretreatment, 10 nM RANKL",complete inhibition of IκBα degradation
same,IκBα phosphorylation by calebin A alone,"[5]; calebin A alone, no RANKL",did not induce phosphorylation of IκBα
same,RANKL-induced IκBα phosphorylation,"[5]; calebin A pretreatment (8 h), 10 nM RANKL",phosphorylation was completely inhibited
same,Proliferation of RAW 264.7 cells (MTT),[6],did not significantly affect the proliferation of RAW 264.7 cells
same,"Number of TRAP-positive osteoclasts, time course","[7]; RANKL 5 nM plus calebin A for 3, 4 or 5 days",decreased the number of TRAP-positive osteoclasts in a dose-dependent manner
same,"Osteoclast formation, calebin A added 1-2 days after RANKL stimulation",[7]; [11],substantially inhibited osteoclast formation
same,"Osteoclast formation, calebin A added at days 3 and 4 after RANKL exposure",[7]; [11],no longer prevented osteoclast formation
same,Inhibition of TRAP-positive osteoclast number at highest dose,"[7]; dose of 5 mM, all time points (3, 4, 5 days)",strongest inhibition
same,MDA-MB-231 cell-induced differentiation of RAW264.7 cells into osteoclasts,[8],inhibited this differentiation
same,RANKL induced osteoclastogenesis in cells transfected with control plasmid,[9],almost completely inhibited
same,RANKL induced osteoclastogenesis in p65 transfected RAW 264.7 cells,[9],minimally inhibited
same,M-CSF-induced expression of RANK,[10],downmodulate M-CSF-induced expression of RANK
same,c-Fms expression,[10],no significant variation
